From PubChem BioAssay (NCI)
Values joined by “and” are separate entries in the source; they are usually repeats but may differ in a detail not shown here. Equal values may be shown once.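 96-well plates; 48 h exposure; 5 concentrations. Endpoints by linear interpolation between flanking doses. Not reached: highest tested concentration assigned. GI50 marks 50% less growth. TGI: concentration producing complete growth inhibition.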

Tests used:
Assay in all cases: NCI-60 cell line screen, 48 h
[1] = tested on: 786-0 renal
[2] = tested on: UACC-257 melanoma
[3] = tested on: OVCAR-5 ovarian
[4] = tested on: DU-145 prostate
[5] = tested on: TK-10 renal
[6] = tested on: HOP-62 NSCLC
[7] = tested on: MALME-3M melanoma
[8] = tested on: HOP-92 NSCLC
[9] = tested on: SW-620 colon
[10] = tested on: NCI-H23 lung

Row | Compound | GI50 [1] | TGI [1] | GI50 [2] | TGI [2] | GI50 [3] | TGI [3] | GI50 [4] | TGI [4] | GI50 [5] | TGI [5] | GI50 [6] | TGI [6] | GI50 [7] | TGI [7] | GI50 [8] | TGI [8] | GI50 [9] | TGI [9] | GI50 [10] | TGI [10]
1 | CC(N)(Cc1c[nH]c2ccccc12)C(=O)O (stereo not given) | > 2500 µM | > 2500 µM | > 2500 µM | > 2500 µM | > 2500 µM | > 2500 µM | > 2500 µM | > 2500 µM | > 2500 µM | > 2500 µM | > 2500 µM | > 2500 µM | 522 µM | > 2500 µM | 1800 µM | > 2500 µM | > 2500 µM | > 2500 µM | > 2500 µM | > 2500 µM
2 | O=c1c2[nH]c3ccccc3c2nc2n1CCS2 | > 100 µM | > 100 µM | > 100 µM | > 100 µM | > 100 µM | > 100 µM | > 100 µM | > 100 µM | > 100 µM | > 100 µM | > 100 µM | > 100 µM | 69.9 µM | > 100 µM | 4.25 µM | > 100 µM | > 100 µM | > 100 µM | > 100 µM | > 100 µM
3 | O=C(C[C@@]1(O)C(=O)Nc2c(Cl)ccc(Cl)c21)c1ccc(C2CC2)cc1 | 1.39 µM | 20 µM | 12.4 µM | 41.1 µM | 1.17 µM | 17.5 µM | 0.492 µM | 17.1 µM | 15.1 µM | 46.6 µM | 0.516 µM | 19.2 µM | 0.542 µM | 23.9 µM | 1.46 µM | 19.7 µM | 0.19 µM | 16.5 µM | 0.634 µM | 19.3 µM
4 | [C-]#[O+].[C-]#[O+].[Ir].[O-]c1ccc2ccccc2c1N=Nc1ccccc1 | 3.39 µM | 12.2 µM | – | 14.4 µM | – | 38.3 µM | – | 31.9 µM | – | 17.3 µM | – | > 100 µM | – | 13 µM | – | 32.4 µM | – | 5.37 µM | – | 31.7 µM
5 | CC(C)[C@](O)(C(=O)OCC1=CC[N+]2([O-])CC[C@@H](O)[C@@H]12)[C@H](C)O (stereo not given in full) | – | > 10000 µM | – | > 10000 µM | – | > 10000 µM | – | > 10000 µM | – | > 10000 µM | – | > 3980 µM | – | > 10000 µM | – | > 10000 µM | – | > 10000 µM | – | > 6000 µM
6 | COc1cc(-c2nc3ccccc3[nH]2)ccc1OCC(=O)N=Nc1c(O)[nH]c2ccc(Cl)cc12 | 1.84 µM | 3.53 µM | 1.91 µM | 3.78 µM | 1.97 µM | 4.82 µM | 1.68 µM | 3.43 µM | 2.58 µM | 5.77 µM | 1.79 µM | 3.44 µM | 1.53 µM | 2.93 µM | 1.5 µM | 3.07 µM | 0.748 µM | 2.42 µM | 1.73 µM | 3.48 µM
7 | FC(F)(F)c1[nH]ncc1-c1nc2c(N3CCCCC3)cc3[nH]ncc3c2c2c1CCCC2 | 0.905 µM | 2.93 µM | 1.09 µM | 3.58 µM | 1.04 µM | 3.61 µM | 0.702 µM | > 13 µM | 0.615 µM | > 50 µM | 0.699 µM | 3.12 µM | 0.843 µM | 2.14 µM | 0.29 µM | 1.62 µM | 0.556 µM | 2.67 µM | 0.791 µM | 2.99 µM
8 | Cc1cc(O)c(C2=NN(c3ccc(S(N)(=O)=O)cc3)C(c3ccccc3O)C2)cc1Cl (stereo not given) | 2.04 µM | 3.88 µM | 3.45 µM | 8.74 µM | 1.7 µM | 3.61 µM | 2.41 µM | 4.95 µM | 3.03 µM | 7.32 µM | 1.75 µM | 3.68 µM | 2.2 µM | 6.7 µM | 1.46 µM | 6.51 µM | 1.7 µM | 3.39 µM | 2 µM | 4.38 µM
9 | COc1ccc(-c2ccc3ncc4c(c3c2)n(-c2ccc(N3CCNCC3)c(C(F)(F)F)c2)c(=O)n4C)cn1 | < 0.01 µM and 0.00325 µM | 0.111 µM and 0.107 µM | 0.0169 µM and 0.021 µM | 0.11 µM and 0.118 µM | < 0.0115 µM and 0.00752 µM | – | < 0.01 µM and 0.00475 µM | 0.686 µM and 0.433 µM | < 0.01 µM and 0.00865 µM | 0.0379 µM and 0.109 µM | < 0.01 µM and 0.0119 µM | 0.378 µM and 0.428 µM | < 0.01 µM and 0.00404 µM | 0.03 µM and 0.0353 µM | < 0.01 µM and 0.00146 µM | 0.0219 µM and 0.0155 µM | 0.0103 µM and 0.0117 µM | 0.131 µM and 0.132 µM | < 0.0131 µM and 0.0156 µM | 0.424 µM and 0.439 µM
10 | Cc1ccc(Nc2[nH]c(C(=O)c3ccc(Cl)cc3)c(N)c2C(=S)Nc2ccccc2)nc1 | 35.7 µM | > 100 µM | 33.3 µM | > 100 µM | 33.1 µM | > 100 µM | 31.2 µM | > 100 µM | 28.1 µM | > 100 µM | 35.9 µM | > 100 µM | 13.7 µM | 42 µM | 29.5 µM | > 100 µM | 32.7 µM | > 100 µM | 35.1 µM | > 100 µM
11 | Cc1c2cnccc2c(C)c2c1c1cc(C(=O)O)ccc1n2C | 1.23 µM | 11.8 µM | 1.12 µM | 4.84 µM | 1.91 µM | 9.52 µM | 1.14 µM | 5.96 µM | 1.79 µM | 8.96 µM | 0.642 µM | 7.52 µM | 0.942 µM | 2.97 µM | 0.913 µM | 5.95 µM | 0.49 µM | 6.7 µM | 0.774 µM | 3.28 µM
12 | COc1cc(OC)cc(-c2ccc(-c3ccc(C(=N)N)s3)s2)c1 | 1.23 µM | 3.06 µM | 1.77 µM | 3.36 µM | 1.5 µM | 3.19 µM | 1.31 µM | 2.77 µM | 1.84 µM | 3.39 µM | 1.81 µM | 3.47 µM | 1.25 µM | 3.28 µM | 0.883 µM and 0.528 µM | 2.39 µM and 2.1 µM | 0.291 µM | 1.02 µM | 1.66 µM | 3.34 µM
13 | CCOC(=O)/C(=C/c1ccccc1)C(=O)c1ccccc1 | 3.02 µM | 8.09 µM | 2.52 µM | 10.1 µM | 4.05 µM | 16.9 µM | 5.32 µM | 17.4 µM | 3.41 µM | 11.2 µM | 2.01 µM | 4.37 µM | 2.94 µM | 9.09 µM | 3.92 µM | 21.8 µM | 2.77 µM | 7.6 µM | 3.75 µM | 16.5 µM
